In ChEMBL document CHEMBL3217491, “Design, synthesis and biological evaluation of imidazopyridine/pyrimidine-chalcone derivatives as potential anticancer agents” (2010):
Activity calls are given as the source filed them. No cut-off for these calls is given here.

Assays:
[1] = system: PC-3; assay: Growth inhibition of human PC3 cells after 48 hrs by SRB assay; format: functional; settings: PC-3, 48 h
[2] = system: MCF7; assay: Growth inhibition of human MCF7 cells after 48 hrs by SRB assay; format: functional; settings: MCF7, 48 h
[3] = Growth inhibition of human BT549 cells after 48 hrs by SRB assay; format: functional; settings: BT-549, 48 h
[4] = Growth inhibition of human LOXIMVI cells after 48 hrs by SRB assay; format: functional; settings: LOX IMVI
[5] = system: MDA-MB-435; assay: Growth inhibition of human MDA-MB-435 cells after 48 hrs by SRB assay; format: functional; settings: MDA-MB-435, 48 h
[6] = system: SK-MEL-2; assay: Growth inhibition of human SK-MEL-2 cells after 48 hrs by SRB assay; format: functional; settings: SK-MEL-2, 48 h
[7] = system: SK-MEL-5; assay: Growth inhibition of human SK-MEL-5 cells after 48 hrs by SRB assay; format: functional; settings: SK-MEL-5, 48 h
[8] = Growth inhibition of human UACC62 cells after 48 hrs by SRB assay; format: functional; settings: UACC-62, 48 h
[9] = system: MCF7; assay: Cell cycle arrest in human MCF7 cells assessed as accumulation at G0/G1 phase at 4 uM after 24 hrs by propidium iodide staining-based flow cytometry (reference value: 64.04%); format: functional
[10] = system: MCF7; assay: Cell cycle arrest in human MCF7 cells assessed as accumulation at S phase at 4 uM after 24 hrs by propidium iodide staining-based flow cytometry (reference value: 20.17%); format: functional
[11] = system: MCF7; assay: Cell cycle arrest in human MCF7 cells assessed as accumulation at G2/M phase at 4 uM after 24 hrs by propidium iodide staining-based flow cytometry (reference value: 15.79%); format: functional
[12] = system: MCF7; assay: Induction of cell cycle arrestin human MCF7 cells assessed as downregulation of cyclin D1 protein expression at 4 uM by Western blot analysis; format: functional, cell-based
[13] = system: MCF7; assay: Induction of cell cycle arrestin human MCF7 cells assessed as downregulation of CDK2 protein expression at 4 uM by Western blot analysis; format: functional, cell-based
[14] = system: MCF7; assay: Induction of cell cycle arrestin human MCF7 cells assessed as downregulation of cyclin E protein expression at 4 uM by Western blot analysis; format: functional, cell-based
[15] = system: MCF7; assay: Induction of cell cycle arrestin human MCF7 cells assessed as downregulation of cyclin A protein expression at 4 uM by Western blot analysis; format: functional, cell-based
[16] = system: MCF7; assay: Induction of apoptosis in human MCF7 cells assessed as upregulation of p27 protein expression at 4 uM by Western blot analysis relative to control; format: functional, cell-based
[17] = system: MCF7; assay: Induction of apoptosis in human MCF7 cells assessed as of p21 protein expression at 4 uM by Western blot analysis relative to control; format: functional, cell-based
[18] = system: MCF7; assay: Induction of apoptosis in human MCF7 cells expressing P21 promoter -145/+8 with luciferase gene assessed as upregulation of p21 protein expression at 4 uM by Western blot analysis relative to control; format: functional, cell-based
[19] = system: MCF7; assay: Induction of apoptosis in human MCF7 cells assessed as decrease in procaspase 9 level at 4 uM by Western blot analysis relative to control; format: functional, cell-based
[20] = system: MCF7; assay: Induction of apoptosis in human MCF7 cells assessed as increase in TNFR1 protein level at 4 uM by Western blot analysis relative to control; format: functional, cell-based
[21] = system: CCRF-CEM; assay: Growth inhibition of human CCRF-CEM cells after 48 hrs by SRB assay; format: functional
[22] = system: K562; assay: Growth inhibition of human K562 cells after 48 hrs by SRB assay; format: functional; settings: K562, 48 h
[23] = system: RPMI-8226; assay: Growth inhibition of human RPMI8226 cells after 48 hrs by SRB assay; format: functional; settings: RPMI-8226, 48 h
[24] = system: A549; assay: Growth inhibition of human A549 cells after 48 hrs by SRB assay; format: functional; settings: A549, 48 h
[25] = Growth inhibition of human EKVX cells after 48 hrs by SRB assay; format: functional
[26] = system: HOP-62; assay: Growth inhibition of human HOP62 cells after 48 hrs by SRB assay; format: functional; settings: HOP-62, 48 h
[27] = system: NCI-H226; assay: Growth inhibition of human NCI-H226 cells after 48 hrs by SRB assay; format: functional; settings: NCI-H226, 48 h
[28] = system: NCI-H23; assay: Growth inhibition of human NCI-H23 cells after 48 hrs by SRB assay; format: functional; settings: NCI-H23, 48 h
[29] = system: NCI-H522; assay: Growth inhibition of human NCI-H522 cells after 48 hrs by SRB assay; format: functional; settings: NCI-H522, 48 h
[30] = system: COLO 205; assay: Growth inhibition of human COLO205 cells after 48 hrs by SRB assay; format: functional; settings: COLO 205, 48 h
[31] = Growth inhibition of human HCC2998 cells after 48 hrs by SRB assay; format: functional; settings: HCC 2998, 48 h
[32] = Growth inhibition of human HCT15 cells after 48 hrs by SRB assay; format: functional; settings: HCT-15, 48 h
[33] = system: HT-29; assay: Growth inhibition of human HT-29 cells after 48 hrs by SRB assay; format: functional; settings: HT-29, 48 h
[34] = system: KM12; assay: Growth inhibition of human KM12 cells after 48 hrs by SRB assay; format: functional; settings: KM12, 48 h
[35] = Growth inhibition of human SF539 cells after 48 hrs by SRB assay; format: functional; settings: SF-539, 48 h
[36] = system: SNB-75; assay: Growth inhibition of human SNB75 cells after 48 hrs by SRB assay; format: functional; settings: SNB-75, 48 h
[37] = system: U-251; assay: Growth inhibition of human U251 cells after 48 hrs by SRB assay; format: functional; settings: U-251, 48 h
[38] = system: IGROV-1; assay: Growth inhibition of human IGROV1 cells after 48 hrs by SRB assay; format: functional; settings: IGROV-1, 48 h
[39] = Growth inhibition of human OVCAR3 cells after 48 hrs by SRB assay; format: functional; settings: OVCAR-3, 48 h
[40] = Growth inhibition of human OVCAR5 cells after 48 hrs by SRB assay; format: functional; settings: OVCAR-5, 48 h
[41] = Growth inhibition of human OVCAR8 cells after 48 hrs by SRB assay; format: functional; settings: OVCAR-8, 48 h
[42] = Growth inhibition of human NCI-ADR-RES cells after 48 hrs by SRB assay; format: functional
[43] = system: SK-OV-3; assay: Growth inhibition of human SKOV3 cells after 48 hrs by SRB assay; format: functional; settings: SK-OV-3, 48 h
[44] = system: A498; assay: Growth inhibition of human A498 cells after 48 hrs by SRB assay; format: functional; settings: A498, 48 h
[45] = system: ACHN; assay: Growth inhibition of human ACHN cells after 48 hrs by SRB assay; format: functional
[46] = system: CAKI-1; assay: Growth inhibition of human Caki1 cells after 48 hrs by SRB assay; format: functional; settings: CAKI-1, 48 h
[47] = system: SN12C; assay: Growth inhibition of human SN12C cells after 48 hrs by SRB assay; format: functional
[48] = system: TK-10; assay: Growth inhibition of human TK10 cells after 48 hrs by SRB assay; format: functional; settings: TK-10, 48 h
[49] = Growth inhibition of human UO31 cells after 48 hrs by SRB assay; format: functional; settings: UO-31, 48 h

Compound COc1ccc(C(=O)/C=C/c2c(C(F)(F)F)nc3ccccn23)cc1OC has a GI50 [1] of 2730 nM, a GI50 [2] of 560 nM and a GI50 [3] of 2590 nM. It also gave a GI50 [4] of 950 nM, a GI50 [5] of 2040 nM and a GI50 [6] of 1720 nM. It also gave a GI50 [7] of 1630 nM, a GI50 [8] of 2220 nM and an Activity [9] of 97.86%. For the same compound, the Activity [10] was 1.83%, the Activity [11] was 0.31% and the inhibition [12] was “Active”. For the same compound, the inhibition [13] was “Active”, the inhibition [14] was “Active” and the inhibition [15] was “inactive”. For the same compound, the Activity [16] was “Active”, the Activity [17] was “inactive” and the Activity [18] was “Active”. For the same compound, the inhibition [19] was “Active”, the Activity [20] was “Active” and the GI50 [21] was 440 nM. For the same compound, the GI50 [22] was 360 nM, the GI50 [23] was 290 nM and the GI50 [24] was 2800 nM. It also gave a GI50 [25] of 3740 nM, a GI50 [26] of 3010 nM and a GI50 [27] of 4550 nM. It also gave a GI50 [28] of 2370 nM, a GI50 [29] of 5730 nM and a GI50 [30] of 1920 nM. For the same compound, the GI50 [31] was 480 nM, the GI50 [32] was 1130 nM and the GI50 [33] was 1480 nM. For the same compound, the GI50 [34] was 570 nM, the GI50 [35] was 1650 nM and the GI50 [36] was 2350 nM. For the same compound, the GI50 [37] was 1100 nM, the GI50 [38] was 440 nM and the GI50 [39] was 1980 nM. It also gave a GI50 [40] of 3790 nM, a GI50 [41] of 1310 nM and a GI50 [42] of 1570 nM. For the same compound, the GI50 [43] was 2490 nM, the GI50 [44] was 2450 nM and the GI50 [45] was 2850 nM. For the same compound, the GI50 [46] was 2500 nM, the GI50 [47] was 1910 nM and the GI50 [48] was 3780 nM. For the same compound, the GI50 [49] was 1440 nM.
